Numbers after ± are expanded uncertainties.
Columns and labels:
[1] = 101 kPa, Liquid, Vibrating tube method
[2] = xn = mol fraction of the nth substance listed; conditions: 101 kPa, Liquid, Vibrating tube method, x2 = 0

mass density ([1]; 276.15 K) | mass density ([1]; 277.15 K) | mass density ([1]; 283.15 K) | mass density ([1]; 293.15 K) | mass density ([1]; 303.15 K) | mass density ([1]; 313.15 K) | mass density ([2]; 276.15 K) | mass density ([2]; 277.15 K) | mass density ([2]; 283.15 K) | mass density ([2]; 293.15 K) | mass density ([2]; 303.15 K) | mass density ([1]; 288.15 K) | mass density ([1]; 298.15 K) | mass density ([1]; 308.15 K) | other results | Compound
1125.17 ± 0.17 kg/m3 | 1124.48 ± 0.17 kg/m3 | 1120.32 ± 0.16 kg/m3 | 1113.37 ± 0.16 kg/m3 | 1106.36 ± 0.16 kg/m3 | 1099.3 ± 0.16 kg/m3 |  |  |  |  |  |  |  |  |  | OCCO [1,2-ethanediol]
 |  |  |  |  |  | 1125.17 ± 0.17 kg/m3 | 1124.48 ± 0.17 kg/m3 | 1120.32 ± 0.16 kg/m3 | 1113.37 ± 0.16 kg/m3 | 1106.36 ± 0.16 kg/m3 |  |  |  | mass density ([2]; 313.15 K): 1099.3 ± 0.16 kg/m3 | OCCO [1,2-ethanediol] + Cc1cc(C)nc(C)c1
928.45 ± 0.23 kg/m3 | 927.61 ± 0.23 kg/m3 | 922.54 ± 0.23 kg/m3 |  | 905.58 ± 0.24 kg/m3 | 897.03 ± 0.24 kg/m3 |  |  |  |  |  | 918.32 ± 0.24 kg/m3 | 909.84 ± 0.24 kg/m3 | 901.31 ± 0.24 kg/m3 | mass density ([1]; 293.14 K): 914.08 ± 0.24 kg/m3 | Cc1cc(C)nc(C)c1 [2,4,6-trimethylpyridine]
807.18 ± 0.15 kg/m3 | 806.25 ± 0.15 kg/m3 | 800.64 ± 0.15 kg/m3 | 791.26 ± 0.15 kg/m3 | 781.83 ± 0.15 kg/m3 |  |  |  |  |  |  | 795.96 ± 0.15 kg/m3 | 786.55 ± 0.15 kg/m3 | 777.08 ± 0.15 kg/m3 | mass density ([1]; 313.14 K): 772.31 ± 0.16 kg/m3 | CO [methanol]
 |  |  |  |  |  | 807.18 ± 0.15 kg/m3 | 806.25 ± 0.15 kg/m3 | 800.64 ± 0.15 kg/m3 | 791.26 ± 0.15 kg/m3 | 781.83 ± 0.15 kg/m3 |  |  |  | mass density ([2]; 288.15 K): 795.96 ± 0.15 kg/m3; mass density ([2]; 298.15 K): 786.55 ± 0.15 kg/m3; mass density ([2]; 308.15 K): 777.08 ± 0.15 kg/m3; mass density ([2]; 313.14 K): 772.31 ± 0.16 kg/m3 | CO [methanol] + Cc1cc(C)nc(C)c1

— the NIST ThermoML archive (doi:10.1007/s10765-011-1149-x)
